Assay results from ChEMBL document CHEMBL1201862, “PubChem BioAssay data set” (2004).
Active and inactive are the calls of the source.

Legend:
[1] = target: T1, Short transient receptor potential channel 4 (Mus musculus, UniProt Q9QUQ5); assay: mouse TRPC4 block via Gq-coupled stimulation – cell-based, acetylcholine stimulus, HEK293 TRPC4, Fluo-4, SAR follow-up (AID 492996); type: functional
T1 sequence (Q9QUQ5 whole entry): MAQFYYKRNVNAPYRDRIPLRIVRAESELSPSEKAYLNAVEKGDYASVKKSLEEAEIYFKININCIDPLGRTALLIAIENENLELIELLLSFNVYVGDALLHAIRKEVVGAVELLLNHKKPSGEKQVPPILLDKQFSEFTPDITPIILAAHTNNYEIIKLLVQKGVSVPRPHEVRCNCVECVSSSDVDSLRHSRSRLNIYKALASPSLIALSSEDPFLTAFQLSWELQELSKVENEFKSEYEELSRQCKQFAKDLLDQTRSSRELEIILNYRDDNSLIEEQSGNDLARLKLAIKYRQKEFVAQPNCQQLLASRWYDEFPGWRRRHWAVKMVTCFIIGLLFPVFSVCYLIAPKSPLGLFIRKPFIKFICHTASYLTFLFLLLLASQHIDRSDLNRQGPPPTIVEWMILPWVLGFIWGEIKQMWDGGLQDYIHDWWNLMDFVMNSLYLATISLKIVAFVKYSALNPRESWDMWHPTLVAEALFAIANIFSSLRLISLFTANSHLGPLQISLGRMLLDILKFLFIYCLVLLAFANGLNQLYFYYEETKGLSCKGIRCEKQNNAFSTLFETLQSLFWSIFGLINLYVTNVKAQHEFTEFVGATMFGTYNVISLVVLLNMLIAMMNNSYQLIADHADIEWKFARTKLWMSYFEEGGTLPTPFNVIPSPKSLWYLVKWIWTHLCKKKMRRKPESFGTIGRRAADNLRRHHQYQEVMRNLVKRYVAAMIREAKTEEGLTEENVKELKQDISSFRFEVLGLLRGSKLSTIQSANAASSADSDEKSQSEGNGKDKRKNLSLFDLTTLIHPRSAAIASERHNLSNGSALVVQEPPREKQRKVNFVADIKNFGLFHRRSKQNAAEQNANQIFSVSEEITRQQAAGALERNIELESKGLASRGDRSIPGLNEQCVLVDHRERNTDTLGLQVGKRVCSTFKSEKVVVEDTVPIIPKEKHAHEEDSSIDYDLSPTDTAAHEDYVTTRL

[2] = target: T1, Short transient receptor potential channel 4; assay: SAR Analysis for the identification of selective inhibits of the transient receptor potential cation channel C4 (TRPC4): Automated Electrophysiology_2. [Related pubchem assays (depositor defined):AID2256]; type: functional
[3] = target: Short transient receptor potential channel 6 (Mus musculus, UniProt Q61143); assay: mouse TRPC6 channel blockers, concentration series – HEK293 cells, membrane potential dye, IC50, selectivity assay for selective TRPC4 inhibitor project, dose response (AID 492987); type: functional, cell-based
[4] = target: T1, Short transient receptor potential channel 4; assay: potency of mouse TRPC4 calcium flux blockers – cell-based, HEK293 TRPC4/mu-opioid, DAMGO stimulus, Fluo-4, dose response (AID 492994); type: functional
H4 [5] = assay: inhibitors of control reporter signal in H4 cells – cell-based, plate reader, dry powder samples, counter-screen for prion reporter project, dose response (AID 540255); type: functional; conditions: Homo sapiens
[6] = target: Luciferin 4-monooxygenase (Photinus pyralis, UniProt P08659); assay: inhibition of purified Photinus pyralis luciferase – biochemical, dry powder samples, plate reader, dose response (AID 588451)
H4 [7] = assay: Amyloid Precursor 5' UTR neuroblastoma cell reporter line Measured in Cell-Based System Using Plate Reader - 2078-04_Inhibitor_Dose_DryPowder_Activity. [Related pubchem assays (depositor defined):AID488894]; type: functional; conditions: Homo sapiens
H4 [8] = assay: Inhibitors of Prion Protein 5' UTR mRNA Measured in Cell-Based System Using Plate Reader - 2078-01_Inhibitor_Dose_DryPowder_Activity. [Related pubchem assays (depositor defined):AID488894]; type: functional; conditions: Homo sapiens
[9] = target: Potassium voltage-gated channel subfamily KQT member 4 (Homo sapiens, UniProt P56696); assay: activation of KCNQ4 potassium current – automated patch clamp, CHO cells, selectivity assay for KCNQ2 activator project, dose response (AID 493043); type: functional, cell-based
[10] = target: Potassium voltage-gated channel subfamily KQT member 2 (Rattus norvegicus, UniProt O88943); assay: Mode of action assay-Dose response assay for compounds that activate KCNQ2 potassium channels on automated patch clamp. [Related pubchem assays (depositor defined):AID2239, AID2258, AID2287, AID493113]; type: functional
[11] = target: Potassium voltage-gated channel subfamily KQT member 2/member 3 (Rattus norvegicus, UniProt O88943+O88944); assay: Mode of action assay-Dose response assay for KCNQ2 activators in the KCNQ2/KCNQ3 co-expressing cells on automated patch clamp. [Related pubchem assays (depositor defined):AID2239, AID2258, AID2287]; type: functional
DNA topoisomerase = DNA topoisomerase (Yersinia pestis, UniProt A0A2S9PM60); assay: Yersinia topoisomerase I cleavage product accumulation – biochemical, cherry-pick, dose response (AID 588525)
Sequence of DNA topoisomerase (A0A2S9PM60 whole entry): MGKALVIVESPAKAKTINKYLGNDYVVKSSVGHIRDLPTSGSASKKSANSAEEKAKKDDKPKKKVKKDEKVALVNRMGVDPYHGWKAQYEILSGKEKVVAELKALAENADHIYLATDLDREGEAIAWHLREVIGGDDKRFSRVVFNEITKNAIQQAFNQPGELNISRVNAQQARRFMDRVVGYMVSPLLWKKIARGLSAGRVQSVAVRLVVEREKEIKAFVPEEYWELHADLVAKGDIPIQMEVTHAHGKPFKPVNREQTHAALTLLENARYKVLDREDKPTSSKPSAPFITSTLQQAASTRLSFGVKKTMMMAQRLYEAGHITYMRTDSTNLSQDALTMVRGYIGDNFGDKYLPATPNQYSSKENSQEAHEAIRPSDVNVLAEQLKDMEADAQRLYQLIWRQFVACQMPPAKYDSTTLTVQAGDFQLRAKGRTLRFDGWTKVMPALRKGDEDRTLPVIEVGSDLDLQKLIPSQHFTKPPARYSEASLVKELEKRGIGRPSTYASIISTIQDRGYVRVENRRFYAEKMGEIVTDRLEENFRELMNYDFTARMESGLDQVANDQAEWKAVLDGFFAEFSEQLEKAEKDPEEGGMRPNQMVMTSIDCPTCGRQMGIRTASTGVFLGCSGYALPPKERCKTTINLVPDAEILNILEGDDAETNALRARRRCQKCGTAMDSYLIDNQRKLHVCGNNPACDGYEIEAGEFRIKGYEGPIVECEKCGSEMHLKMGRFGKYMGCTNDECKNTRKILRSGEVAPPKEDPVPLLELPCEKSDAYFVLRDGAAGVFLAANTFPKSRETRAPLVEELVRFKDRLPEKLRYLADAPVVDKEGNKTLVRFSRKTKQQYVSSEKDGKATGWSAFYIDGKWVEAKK

Sequence of Potassium voltage-gated channel subfamily KQT member 2/member 3 (O88943 whole entry): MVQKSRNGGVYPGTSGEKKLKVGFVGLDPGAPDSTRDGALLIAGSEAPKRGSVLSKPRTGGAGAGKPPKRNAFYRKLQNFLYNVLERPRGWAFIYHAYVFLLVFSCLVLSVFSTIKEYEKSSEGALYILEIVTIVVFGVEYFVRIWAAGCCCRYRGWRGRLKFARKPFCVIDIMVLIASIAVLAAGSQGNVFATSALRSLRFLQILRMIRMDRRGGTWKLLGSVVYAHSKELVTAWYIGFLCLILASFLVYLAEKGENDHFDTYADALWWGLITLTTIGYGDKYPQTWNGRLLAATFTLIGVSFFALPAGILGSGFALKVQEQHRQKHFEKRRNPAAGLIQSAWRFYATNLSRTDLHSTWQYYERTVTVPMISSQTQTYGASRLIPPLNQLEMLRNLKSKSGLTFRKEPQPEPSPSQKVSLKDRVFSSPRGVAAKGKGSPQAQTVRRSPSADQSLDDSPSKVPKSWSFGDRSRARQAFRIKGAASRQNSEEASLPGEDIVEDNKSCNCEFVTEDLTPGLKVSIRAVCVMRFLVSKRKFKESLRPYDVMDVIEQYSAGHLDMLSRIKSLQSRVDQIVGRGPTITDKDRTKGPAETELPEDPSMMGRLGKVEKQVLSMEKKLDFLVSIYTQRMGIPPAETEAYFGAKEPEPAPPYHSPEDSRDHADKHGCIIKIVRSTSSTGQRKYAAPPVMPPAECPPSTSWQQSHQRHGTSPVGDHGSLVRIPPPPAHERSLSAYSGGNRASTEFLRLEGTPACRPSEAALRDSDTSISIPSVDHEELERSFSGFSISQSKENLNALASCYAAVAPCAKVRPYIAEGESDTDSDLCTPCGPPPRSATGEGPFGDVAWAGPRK
Sequence of Potassium voltage-gated channel subfamily KQT member 2/member 3 (O88944 whole entry): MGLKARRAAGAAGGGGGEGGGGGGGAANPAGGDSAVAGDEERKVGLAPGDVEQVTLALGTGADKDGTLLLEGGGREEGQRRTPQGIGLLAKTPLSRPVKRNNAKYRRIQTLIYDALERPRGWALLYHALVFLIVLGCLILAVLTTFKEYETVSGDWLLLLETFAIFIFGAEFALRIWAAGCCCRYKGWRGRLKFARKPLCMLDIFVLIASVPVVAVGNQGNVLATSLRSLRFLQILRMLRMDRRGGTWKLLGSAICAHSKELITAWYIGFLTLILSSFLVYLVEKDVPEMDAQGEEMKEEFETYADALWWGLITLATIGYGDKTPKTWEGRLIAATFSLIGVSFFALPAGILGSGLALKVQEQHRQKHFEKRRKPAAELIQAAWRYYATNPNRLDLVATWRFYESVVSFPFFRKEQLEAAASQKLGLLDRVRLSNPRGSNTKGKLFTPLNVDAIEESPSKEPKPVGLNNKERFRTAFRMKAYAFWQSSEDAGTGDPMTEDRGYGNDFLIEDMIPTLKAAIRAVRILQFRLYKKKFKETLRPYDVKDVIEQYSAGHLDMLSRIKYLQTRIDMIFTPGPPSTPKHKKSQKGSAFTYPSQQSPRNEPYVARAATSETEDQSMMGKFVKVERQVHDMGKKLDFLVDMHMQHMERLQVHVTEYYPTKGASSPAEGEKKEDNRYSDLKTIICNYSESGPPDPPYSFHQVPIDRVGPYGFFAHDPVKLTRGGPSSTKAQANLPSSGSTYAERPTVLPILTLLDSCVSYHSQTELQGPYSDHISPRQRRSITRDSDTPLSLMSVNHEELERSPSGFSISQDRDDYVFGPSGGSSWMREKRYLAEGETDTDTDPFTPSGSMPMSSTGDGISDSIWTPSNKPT
Sequence of Potassium voltage-gated channel subfamily KQT member 2 (O88943 whole entry): as the sequence (O88943 whole entry) above
Sequence of Potassium voltage-gated channel subfamily KQT member 4 (P56696 whole entry): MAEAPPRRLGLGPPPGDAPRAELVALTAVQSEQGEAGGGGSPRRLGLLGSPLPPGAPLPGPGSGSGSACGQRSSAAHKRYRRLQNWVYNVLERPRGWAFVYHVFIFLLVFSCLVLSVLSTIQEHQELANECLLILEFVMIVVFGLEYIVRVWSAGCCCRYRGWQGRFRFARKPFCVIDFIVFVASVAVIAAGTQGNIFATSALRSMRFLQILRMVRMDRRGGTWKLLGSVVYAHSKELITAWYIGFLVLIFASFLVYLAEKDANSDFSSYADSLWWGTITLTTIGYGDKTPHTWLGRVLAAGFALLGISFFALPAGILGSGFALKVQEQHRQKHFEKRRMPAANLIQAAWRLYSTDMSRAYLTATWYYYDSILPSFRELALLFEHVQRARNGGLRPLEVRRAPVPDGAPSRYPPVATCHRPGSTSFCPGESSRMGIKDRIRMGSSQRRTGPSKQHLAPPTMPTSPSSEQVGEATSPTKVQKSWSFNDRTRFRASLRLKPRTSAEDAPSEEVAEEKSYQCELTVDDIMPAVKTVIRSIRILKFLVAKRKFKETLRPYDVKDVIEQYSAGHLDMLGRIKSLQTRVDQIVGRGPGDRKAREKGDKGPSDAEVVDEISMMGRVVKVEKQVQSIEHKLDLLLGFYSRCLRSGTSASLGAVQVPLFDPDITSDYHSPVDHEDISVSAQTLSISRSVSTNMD
Sequence of Short transient receptor potential channel 6 (Q61143 whole entry): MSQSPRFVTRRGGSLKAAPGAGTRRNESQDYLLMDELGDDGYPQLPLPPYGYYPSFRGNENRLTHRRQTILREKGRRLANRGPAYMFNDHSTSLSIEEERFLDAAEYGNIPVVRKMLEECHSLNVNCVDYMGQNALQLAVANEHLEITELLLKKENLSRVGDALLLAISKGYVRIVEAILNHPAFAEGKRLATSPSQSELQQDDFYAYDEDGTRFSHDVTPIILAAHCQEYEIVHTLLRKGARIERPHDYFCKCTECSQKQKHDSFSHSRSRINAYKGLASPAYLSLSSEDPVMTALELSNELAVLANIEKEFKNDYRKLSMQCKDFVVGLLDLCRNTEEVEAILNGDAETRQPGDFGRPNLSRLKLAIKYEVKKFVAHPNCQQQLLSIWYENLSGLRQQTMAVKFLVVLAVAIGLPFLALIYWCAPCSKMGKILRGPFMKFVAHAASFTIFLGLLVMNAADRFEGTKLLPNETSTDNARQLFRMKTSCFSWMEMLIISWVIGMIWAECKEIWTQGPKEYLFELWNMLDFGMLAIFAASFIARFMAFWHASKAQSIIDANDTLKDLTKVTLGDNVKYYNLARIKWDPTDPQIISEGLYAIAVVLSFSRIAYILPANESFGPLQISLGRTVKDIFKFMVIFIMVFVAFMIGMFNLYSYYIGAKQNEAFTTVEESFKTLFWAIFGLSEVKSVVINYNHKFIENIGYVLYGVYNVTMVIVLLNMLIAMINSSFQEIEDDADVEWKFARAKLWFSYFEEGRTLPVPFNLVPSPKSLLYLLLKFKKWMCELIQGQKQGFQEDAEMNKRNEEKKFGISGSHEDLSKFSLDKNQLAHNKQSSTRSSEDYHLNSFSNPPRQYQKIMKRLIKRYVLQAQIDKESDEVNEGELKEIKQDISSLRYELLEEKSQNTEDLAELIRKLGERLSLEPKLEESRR
Sequence of Luciferin 4-monooxygenase (P08659 whole entry): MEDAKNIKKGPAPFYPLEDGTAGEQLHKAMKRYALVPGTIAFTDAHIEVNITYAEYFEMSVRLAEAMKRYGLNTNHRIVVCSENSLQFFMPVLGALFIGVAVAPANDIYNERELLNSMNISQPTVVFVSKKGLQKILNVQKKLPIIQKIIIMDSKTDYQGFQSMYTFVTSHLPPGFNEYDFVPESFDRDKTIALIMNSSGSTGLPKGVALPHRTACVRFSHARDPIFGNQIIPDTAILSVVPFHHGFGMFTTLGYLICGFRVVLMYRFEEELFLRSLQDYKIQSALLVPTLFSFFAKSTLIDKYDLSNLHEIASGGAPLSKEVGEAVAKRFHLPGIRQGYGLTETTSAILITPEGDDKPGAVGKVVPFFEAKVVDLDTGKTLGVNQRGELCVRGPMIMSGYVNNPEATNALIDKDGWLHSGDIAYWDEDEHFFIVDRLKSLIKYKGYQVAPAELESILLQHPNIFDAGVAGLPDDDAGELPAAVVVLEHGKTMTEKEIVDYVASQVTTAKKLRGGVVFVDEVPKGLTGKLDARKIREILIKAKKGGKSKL

Cc1cc(N2CCCCCC2)nc2ccccc12
active: IC50 [1] 9.55 µM | IC50 [2] 1.96 µM | IC50 [3] 9.74 µM | IC50 [4] 1.5 µM

CC1CCCCN1c1ncnc2c1cnn2-c1ccc(Cl)cc1 (configuration not stated)
active: AC50 (H4 [5]) 0.074 µM | AC50 [6] 4.19 µM | AC50 (H4 [7]) 0.00838 µM | AC50 (H4 [8]) 0.018 µM

Cc1cccc(C)c1NC(=O)C1CC2CCC1C2 (configuration not stated)
active: EC50 [9] 13.4 µM | EC50 [10] 3.24 µM | EC50 [11] 4.66 µM

CC(=O)c1cccc(NC(=O)CCc2nnc3ccc(NCc4ccc5c(c4)OCO5)nn23)c1
active: AC50 (DNA topoisomerase) 7.46 µM
